In the NIST ThermoML archive (doi:10.1016/j.jct.2014.06.012):
± gives the expanded uncertainty stated by the source.

Conditions: for molar entropy: 101.33 kPa; for Triple point temperature: Adiabatic calorimetry

O=P([O-])([O-])[O-].[Cs+].[Mn+2] [cesium manganese(II) phosphate]
Conditions | molar entropy [J/K/mol]
5 K, Crystal 3, Vacuum adiabatic calorimetry | 0.572 ± 0.042
6 K, Crystal 3, Vacuum adiabatic calorimetry | 0.9894 ± 0.067
6.9 K, Crystal 2, Vacuum adiabatic calorimetry | 3.334 ± 0.22
6.9 K, Crystal 3, Vacuum adiabatic calorimetry | 1.463 ± 0.1
7 K, Crystal 2, Vacuum adiabatic calorimetry | 3.434 ± 0.23
8 K, Crystal 2, Vacuum adiabatic calorimetry | 4.099 ± 0.27
9 K, Crystal 2, Vacuum adiabatic calorimetry | 4.639 ± 0.31
10 K, Crystal 2, Vacuum adiabatic calorimetry | 5.163 ± 0.35
15 K, Crystal 2, Vacuum adiabatic calorimetry | 8.007 ± 0.53
20 K, Crystal 2, Vacuum adiabatic calorimetry | 11.12 ± 0.18
25 K, Crystal 2, Vacuum adiabatic calorimetry | 14.62 ± 0.23
30 K, Crystal 2, Vacuum adiabatic calorimetry | 18.46 ± 0.29
35 K, Crystal 2, Vacuum adiabatic calorimetry | 22.54 ± 0.35
40 K, Crystal 2, Vacuum adiabatic calorimetry | 26.78 ± 0.42
45 K, Crystal 2, Vacuum adiabatic calorimetry | 31.05 ± 0.39
50 K, Crystal 2, Vacuum adiabatic calorimetry | 35.27 ± 0.44
60 K, Crystal 2, Vacuum adiabatic calorimetry | 43.62 ± 0.54
70 K, Crystal 2, Vacuum adiabatic calorimetry | 51.79 ± 0.64
80 K, Crystal 2, Vacuum adiabatic calorimetry | 59.71 ± 0.74
90 K, Crystal 2, Vacuum adiabatic calorimetry | 67.35 ± 0.86
100 K, Crystal 2, Vacuum adiabatic calorimetry | 74.73 ± 0.94
110 K, Crystal 2, Vacuum adiabatic calorimetry | 81.91 ± 1
120 K, Crystal 2, Vacuum adiabatic calorimetry | 88.96 ± 1.1
127 K, Crystal 1, Vacuum adiabatic calorimetry | 95.03 ± 1.2
127 K, Crystal 2, Vacuum adiabatic calorimetry | 93.79 ± 1.2
130 K, Crystal 1, Vacuum adiabatic calorimetry | 97.11 ± 1.2
140 K, Crystal 1, Vacuum adiabatic calorimetry | 103.68 ± 1.2
150 K, Crystal 1, Vacuum adiabatic calorimetry | 110.17 ± 1.3
160 K, Crystal 1, Vacuum adiabatic calorimetry | 116.4 ± 1.4
170 K, Crystal 1, Vacuum adiabatic calorimetry | 122.56 ± 1.5
180 K, Crystal 1, Vacuum adiabatic calorimetry | 128.54 ± 1.6
190 K, Crystal 1, Vacuum adiabatic calorimetry | 134.36 ± 1.7
200 K, Crystal 1, Vacuum adiabatic calorimetry | 140.02 ± 1.7
210 K, Crystal 1, Vacuum adiabatic calorimetry | 145.67 ± 1.7
220 K, Crystal 1, Vacuum adiabatic calorimetry | 151.07 ± 1.8
230 K, Crystal 1, Vacuum adiabatic calorimetry | 156.4 ± 1.9
240 K, Crystal 1, Vacuum adiabatic calorimetry | 161.63 ± 2
250 K, Crystal 1, Vacuum adiabatic calorimetry | 166.79 ± 2.1
260 K, Crystal 1, Vacuum adiabatic calorimetry | 171.86 ± 2.1
270 K, Crystal 1, Vacuum adiabatic calorimetry | 176.77 ± 2.2
280 K, Crystal 1, Vacuum adiabatic calorimetry | 181.59 ± 2.2
290 K, Crystal 1, Vacuum adiabatic calorimetry | 186.41 ± 2.2
298.15 K, Crystal 1, Vacuum adiabatic calorimetry | 190.24 ± 2.3
300 K, Crystal 1, Vacuum adiabatic calorimetry | 191.15 ± 2.3
310 K, Crystal 1, Vacuum adiabatic calorimetry | 195.81 ± 2.4
320 K, Crystal 1, Vacuum adiabatic calorimetry | 200.46 ± 2.4
330 K, Crystal 1, Vacuum adiabatic calorimetry | 205.03 ± 2.5
340 K, Crystal 1, Vacuum adiabatic calorimetry | 209.61 ± 2.6
350 K, Crystal 1, Small sample (50 mg) DSC | 214.51 ± 17
360 K, Crystal 1, Small sample (50 mg) DSC | 218.67 ± 17
370 K, Crystal 1, Small sample (50 mg) DSC | 222.83 ± 17
380 K, Crystal 1, Small sample (50 mg) DSC | 226.99 ± 17
390 K, Crystal 1, Small sample (50 mg) DSC | 231.14 ± 18
400 K, Crystal 1, Small sample (50 mg) DSC | 235.3 ± 18
410 K, Crystal 1, Small sample (50 mg) DSC | 239.46 ± 18
420 K, Crystal 1, Small sample (50 mg) DSC | 243.61 ± 19
430 K, Crystal 1, Small sample (50 mg) DSC | 247.77 ± 19
440 K, Crystal 1, Small sample (50 mg) DSC | 251.93 ± 20
450 K, Crystal 1, Small sample (50 mg) DSC | 255.25 ± 20
460 K, Crystal 1, Small sample (50 mg) DSC | 259.41 ± 20
470 K, Crystal 1, Small sample (50 mg) DSC | 262.74 ± 21
480 K, Crystal 1, Small sample (50 mg) DSC | 266.06 ± 21
490 K, Crystal 1, Small sample (50 mg) DSC | 270.22 ± 21
500 K, Crystal 1, Small sample (50 mg) DSC | 273.55 ± 22
510 K, Crystal 1, Small sample (50 mg) DSC | 276.87 ± 22
520 K, Crystal 1, Small sample (50 mg) DSC | 280.2 ± 22
530 K, Crystal 1, Small sample (50 mg) DSC | 283.52 ± 22
540 K, Crystal 1, Small sample (50 mg) DSC | 286.85 ± 22
550 K, Crystal 1, Small sample (50 mg) DSC | 290.18 ± 22
560 K, Crystal 1, Small sample (50 mg) DSC | 293.5 ± 23
570 K, Crystal 1, Small sample (50 mg) DSC | 296.83 ± 23
580 K, Crystal 1, Small sample (50 mg) DSC | 300.15 ± 23
590 K, Crystal 1, Small sample (50 mg) DSC | 302.65 ± 23
600 K, Crystal 1, Small sample (50 mg) DSC | 305.97 ± 24
610 K, Crystal 1, Small sample (50 mg) DSC | 309.3 ± 24
620 K, Crystal 1, Small sample (50 mg) DSC | 311.79 ± 24
630 K, Crystal 1, Small sample (50 mg) DSC | 315.12 ± 25
640 K, Crystal 1, Small sample (50 mg) DSC | 317.61 ± 25
650 K, Crystal 1, Small sample (50 mg) DSC | 320.94 ± 25

Conditions | Triple point temperature [K]
Crystal 2 | 127 ± 0.8
Crystal 3 | 6.9 ± 0.2
